From publication PMC4125290, “Cyclic di-GMP-dependent Signaling Pathways in the Pathogenic Firmicute Listeria monocytogenes” (PLoS Pathogens, 2014)

Assays:
Assay in all cases: HPLC of c-di-GMP hydrolysis to pGpG
Assay type in all cases: biochemical
Details in all cases: 250 µM c-di-GMP, 1-5 µM enzyme, 37°C
[1] = molecular target: T1, PdeD (Lmo0111), PdeD::His6 (Listeria monocytogenes, UniProt Q8YAK7)
T1 construct: tag kept

[2] = molecular target: T2, PdeC (Lmo1914), MBP::PdeC (Listeria monocytogenes, UniProt Q8Y5Y9)
T2 construct: MBP fusion (pMAL-c2x), E. coli DH5alpha, amylose resin; MBP kept
T2 sequence (Q8Y5Y9 entry or part of it): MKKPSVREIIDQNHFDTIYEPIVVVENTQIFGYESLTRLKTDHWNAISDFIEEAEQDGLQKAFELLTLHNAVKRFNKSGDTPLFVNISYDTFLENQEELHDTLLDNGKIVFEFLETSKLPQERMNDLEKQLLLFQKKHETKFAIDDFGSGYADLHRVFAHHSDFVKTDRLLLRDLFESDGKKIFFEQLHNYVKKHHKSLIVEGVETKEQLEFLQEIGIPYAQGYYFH

[3] = molecular target: T3, PdeB (Lmo0131), PdeB::His6 (Listeria monocytogenes, UniProt Q8YAJ4)
T3 construct: tag kept
T3 sequence (Q8YAJ4 entry or part of it): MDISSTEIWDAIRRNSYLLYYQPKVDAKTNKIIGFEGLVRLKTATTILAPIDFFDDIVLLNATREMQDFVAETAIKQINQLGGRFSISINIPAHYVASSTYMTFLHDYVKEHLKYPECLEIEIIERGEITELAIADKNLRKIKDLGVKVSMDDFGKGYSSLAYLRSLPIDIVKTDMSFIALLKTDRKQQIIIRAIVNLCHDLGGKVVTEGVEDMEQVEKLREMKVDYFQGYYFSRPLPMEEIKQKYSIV

T1 sequence (Q8YAK7 entry or part of it): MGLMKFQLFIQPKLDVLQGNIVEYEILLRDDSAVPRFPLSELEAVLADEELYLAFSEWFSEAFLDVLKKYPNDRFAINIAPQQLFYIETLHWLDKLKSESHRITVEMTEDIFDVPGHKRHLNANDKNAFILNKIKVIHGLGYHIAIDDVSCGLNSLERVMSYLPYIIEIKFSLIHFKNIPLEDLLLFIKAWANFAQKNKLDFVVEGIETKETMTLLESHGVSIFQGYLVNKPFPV

Nc1nc2c(ncn2[C@@H]2O[C@@H]3COP(=O)(O)O[C@H]4[C@@H](O)[C@H](n5cnc6c(=O)[nH]c(N)nc65)O[C@@H]4COP(=O)(O)O[C@H]3[C@H]2O)c(=O)[nH]1 [c-di-GMP]
HPLC of c-di-GMP hydrolysis to pGpG [1]: all three recombinant proteins possess c-di-GMP PDE activities in vitro
HPLC of c-di-GMP hydrolysis to pGpG [2]: all three recombinant proteins possess c-di-GMP PDE activities in vitro
HPLC of c-di-GMP hydrolysis to pGpG [3]: all three recombinant proteins possess c-di-GMP PDE activities in vitro
